From patent publication US6767561B2, “DNA polymerase inhibitors, mikanolide and dihydromikanolide” (Societe de Conseils de Recherches et d'Applications …, priority 1999, dated 2004)

What was measured:
[1] = system: Klenow DNA polymerase enzyme without exonuclease; assay: Incorporation of cytosine labelled with 32P into a DNA in the presence of DNA polymerase in an acellular system; assay type: biochemical; conditions: 100 μg/ml, [32P]dCTP incorporation vs control
Protocol: Incorporation of Cytosine Labelled With ^32P into a DNA in the Presence of DNA Polymerase in an Acellular System
Labelling of the DNA is carried out on a DNA fragment which incorporates nucleotides by way of the activity of the DNA polymerase enzyme. From these nucleotides, the dCTP is labelled by radioactive phosphorus (^32P).
Plasmidic DNA (pc DNA 3, invitrogen, Netherlands) is diluted to a concentration of 2 ng in 45 μl of TE solution (10 MM Tris-HCl; pH 8.0; 1 mM EDTA) then denatured by heating at 100° C. for 10 minutes before being replaced directly in ice. The denatured DNA is placed in the tube which contains the buffer solution of dATP, dGTP, dTTP, the Klenow DNA polymerase enzyme without exonuclease and the random primers (Rediprime II random prime labelling system, RPN 1633, RPN 1634, Amersham pharmacia biotech). 2 μl of Redivue [^32P]dCTP ([…] 5′(α-^32P), specific activity 250 μCi, Amersham), is added to start the reaction. The reaction is carried out in the presence or absence of the compound to be tested for 10 minutes at 37° C. or 1 hour at ambient temperature. […] 10 μl is counted into 5 ml of scintillor (Instagel® plus and Packard scintillation counter). The results are expressed as a percentage of the inhibition of incorporation of the labelled nucleotide in the sample with respect to the control (100−(DPM of the sample/DPM control)*100).

[2] = system: HT29 cells; assay: Incorporation of tritiated thymidine into the DNA of HT29 cells in exponential growth phase (in vitro); assay type: cell-based, human; conditions: 1 hour treatment
Protocol: (§1) The cell lines DU145 (human prostate cancer cells), HT29 (cancer of the colon) and Mia-PaCa2 (human pancreatic cancer cells) were acquired from the American Tissue Culture Collection (Rockville, Md., USA).
Incorporation of Thymidine Labelled With Tritium into DNA Cells in Exponential Growth Phase (in vitro)
HT29 cells are seeded in 96-well plates (culturPlate-96, Packard; 4000 cells per well) with the medium (DMEM, Gibco BRL complemented with 10% foetal calf serum, Gibco BRL). On day 3, the medium is removed and replaced by medium containing the tritiated thymidine (5′-thymidine TRK.328, 1 mCi, 0.6 μCi/wells, Amersham) with or without the products (range of 100 to 0.19 μg/ml per ½ dilutions). The treatments are carried out for 1 hour. The medium is then removed and the cells are washed twice with 200 μl of PBS (Gibco BRL). The lysis solution (SDS 1.25%; EDTA 5 mM) is added and left for 10 minutes at ambient temperature, then 75 μl of scintillating liquid (microscint® 40, Packard) is added. Reading is carried out using Topcount® (Packard). The results are expressed as a percentage of the inhibition of incorporation of the labelled nucleotide in the sample with respect to the control (100−(DPM of the sample/DPM control)*100).

[3] = system: Mia-Paca2 human tumor cells; assay: Cell proliferation test (WST1), Mia-PaCa2; assay type: cell-based; conditions: Mia-Paca2, 96 hours treatment, read-out: Inhibitory concentration IC50
Protocol: as §1
(§2) The cells placed in 80 μl of Dulbecco's modified Eagle medium (Gibco-Brl, Cergy-Pontoise, France) completed with 10% foetal calf serum inactivated by heating (Gibco-Brl, Cergy-Pontoise, France), 50000 units/l of penicillin and 50 mg/l streptomycin (Gibco-Brl, Cergy-Pontoise, France), and 2 mM of glutamine (Gibco-Brl, Cergy-Pontoise, France) were seeded on a 96-well plate on day 0. The cells were treated on day 1 for 96 hours with increasing concentrations of each of the compounds to be tested at 50 μg/ml. At the end of this period, quantification of cell proliferation is evaluated by a colorimetric test based on the cleavage of the tetrazolium salt WST1 by mitochondrial dehydrogenases in viable cells leading to the formation of formazan (Boehringer Mannheim, Meylan, France). These tests are carried out in duplicate with 8 determinations per concentration tested. For each compound to be tested, the values included in the linear part of the sigmoid were retained for linear regression analysis and used to estimate the inhibitory concentration IC50. The products are solubilized in dimethylsulphoxide (DMSO) at 10^−2 M and finally used in culture with 0.5% DMSO.

[4] = system: DU145 human tumor cells; assay: Cell proliferation test (WST1), DU145; assay type: cell-based; conditions: DU-145, 96 hours treatment, read-out: Inhibitory concentration IC50
Protocol: as §1, §2

Row | Compound | Inhibition of incorporation (%) [1] | Remaining thymidine incorporation (dpm sample/dpm control) ([2]; 25 μg/ml) | Remaining thymidine incorporation (dpm sample/dpm control) ([2]; 50 μg/ml) | Remaining thymidine incorporation (dpm sample/dpm control) ([2]; 100 μg/ml) | IC50 [3] | IC50 [4]
1 | C[C@H]1C(=O)O[C@H]2C[C@]3(C)O[C@H]3[C@@H]3O[C@@H]3C3=C[C@@H](OC3=O)[C@@H]21 [Dihydromikanolide, dihydromikanolide] | 73 (n = 5; standard deviation σ = 7) % | 0.58 | 0.29 | 0.19 |  | 
2 | C=C1C(=O)O[C@H]2C[C@]3(C)O[C@H]3[C@@H]3O[C@@H]3C3=C[C@@H](OC3=O)[C@H]12 [Mikanolide, mikanolide] | 79.6 (n = 3; standard deviation σ = 11.0) % | 1.04 | 0.61 | 0.53 | 3 µM | 15 µM
